In US20230391768A2, “IMIDAZOPYRIDINE DERIVATIVES AND AZA-IMIDAZOPYRIDINE DERIVATIVES AS JANUS KINASE 2 INHIBITORS AND USES THEREOF” (Dana-Farber Cancer Institute, Inc., priority 2018, published 2023):

Columns and labels:
JAK2 = JAK2 (Homo sapiens (Human), UniProt O60674); assay: JAK2 Z-Lyte biochemical assay; conditions: commercial JAK2 Z-Lyte assay from Invitrogen
Experimental: The JAK2 Z-Lyte biochemical assay was performed according to manufacturer's instructions (Life Technologies).

[1] = test system: cell lines or patient-derived xenografts from patients with CRLF2-rearranged B-ALL; conditions: cited from earlier work

Chain of JAK2 (O60674 whole entry): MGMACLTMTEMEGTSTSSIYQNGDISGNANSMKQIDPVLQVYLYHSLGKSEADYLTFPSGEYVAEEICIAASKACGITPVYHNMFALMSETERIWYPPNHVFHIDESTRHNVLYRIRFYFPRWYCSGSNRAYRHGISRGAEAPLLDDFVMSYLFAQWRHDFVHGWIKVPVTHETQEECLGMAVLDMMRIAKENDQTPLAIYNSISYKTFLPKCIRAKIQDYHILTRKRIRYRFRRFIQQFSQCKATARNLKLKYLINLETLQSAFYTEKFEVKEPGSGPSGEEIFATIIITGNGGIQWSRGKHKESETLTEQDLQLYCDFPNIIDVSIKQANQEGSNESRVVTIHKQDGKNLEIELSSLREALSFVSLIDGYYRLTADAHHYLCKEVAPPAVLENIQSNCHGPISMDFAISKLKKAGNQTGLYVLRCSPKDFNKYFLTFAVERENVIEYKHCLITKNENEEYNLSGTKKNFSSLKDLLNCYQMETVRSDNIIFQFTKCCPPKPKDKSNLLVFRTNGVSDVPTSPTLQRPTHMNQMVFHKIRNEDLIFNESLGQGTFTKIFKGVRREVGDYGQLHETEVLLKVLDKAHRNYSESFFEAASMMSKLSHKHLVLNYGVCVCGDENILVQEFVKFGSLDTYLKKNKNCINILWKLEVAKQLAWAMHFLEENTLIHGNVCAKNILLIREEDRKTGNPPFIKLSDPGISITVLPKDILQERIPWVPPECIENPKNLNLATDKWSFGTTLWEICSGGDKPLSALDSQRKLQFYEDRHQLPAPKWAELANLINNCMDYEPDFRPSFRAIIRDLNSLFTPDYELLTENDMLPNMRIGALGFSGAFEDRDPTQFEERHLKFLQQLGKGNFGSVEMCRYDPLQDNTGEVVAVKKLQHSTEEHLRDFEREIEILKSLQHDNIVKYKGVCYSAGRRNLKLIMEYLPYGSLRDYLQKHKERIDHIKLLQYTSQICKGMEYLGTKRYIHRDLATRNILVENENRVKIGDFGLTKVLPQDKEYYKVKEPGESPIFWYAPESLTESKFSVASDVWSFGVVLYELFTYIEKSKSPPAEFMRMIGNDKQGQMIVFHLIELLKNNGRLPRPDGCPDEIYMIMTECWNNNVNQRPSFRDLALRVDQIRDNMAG

| IC50 (JAK2) | SMILES | IC50 [1] |
| --- | --- | --- |
| 508 nM | CCN1CCN(Cc2cc(NC(=O)c3ccc(C)c(-c4ccc5nc(NC(=O)C6CC6)nn5c4)c3)cc(C(F)(F)F)c2)CC1 [Compound I-1, 3-(2-(cyclopropanecarboxamido)-[1,2,4]triazolo[1,5-a]pyridin-6-yl)-N-(3-((4-ethylpiperazin-1-yl)methyl)-5-(trifluoromethyl)phenyl)-4-methylbenzamide] |  |
| 981 nM | CCN1CCN(Cc2cc(NC(=O)c3ccc(C)c(-c4ccn5nc(NC(=O)C6CC6)nc5c4)c3)cc(C(F)(F)F)c2)CC1 [Compound I-3, 3-(2-(cyclopropanecarboxamido)-[1,2,4]triazolo[1,5-a]pyridin-7-yl)-N-(3-((4-ethylpiperazin-1-yl)methyl)-5-(trifluoromethyl)phenyl)-4-methylbenzamide] |  |
| 950 nM | CCN1CCN(Cc2cc(NC(=O)c3ccc(C)c(-c4cn5cc(NC(=O)C6CC6)nc5cn4)c3)cc(C(F)(F)F)c2)CC1 [Compound I-4, 3-(2-(cyclopropanecarboxamido)imidazo[1,2-a]pyrazin-6-yl)-N-(3-((4-ethylpiperazin-1-yl)methyl)-5-(trifluoromethyl)phenyl)-4-methylbenzamide] |  |
| 9510 nM | CCN1CCN(Cc2cc(NC(=O)c3ccc(C)c(-c4cnc5nc(NC(=O)C6CC6)cn5c4)c3)cc(C(F)(F)F)c2)CC1 [Compound I-5, 3-(2-(cyclopropanecarboxamido)imidazo[1,2-a]pyrimidin-6-yl)-N-(3-((4-ethylpiperazin-1-yl)methyl)-5-(trifluoromethyl)phenyl)-4-methylbenzamide] |  |
| 672 nM | CCN1CCN(Cc2ccc(NC(=O)c3ccc(C)c(-c4ccc5nc(NC(=O)C6CC6)cn5c4)c3)cc2C(F)(F)F)CC1 [Compound I-7, 3-(2-(cyclopropanecarboxamido)imidazo[1,2-a]pyridin-6-yl)-N-(4-((4-ethylpiperazin-1-yl)methyl)-3-(trifluoromethyl)phenyl)-4-methylbenzamide] |  |
| 824 nM | CCN1CCN(Cc2cc(C(=O)Nc3ccc(C)c(-c4ccc5nc(NC(=O)C6CC6)cn5c4)c3)cc(C(F)(F)F)c2)CC1 [Compound I-8, N-(3-(2-(cyclopropanecarboxamido)imidazo[1,2-a]pyridin-6-yl)-4-methylphenyl)-3-((4-ethylpiperazin-1-yl)methyl)-5-(trifluoromethyl)benzamide] |  |
| 301 nM | Cc1ccc(C(=O)Nc2cc(CN3CCNCC3)cc(C(F)(F)F)c2)cc1-c1ccc2nc(NC(=O)C3CC3)cn2n1 [Compound I-9, 3-(2-(cyclopropanecarboxamido)imidazo[1,2-b]pyridazin-6-yl)-4-methyl-N-(3-(piperazin-1-ylmethyl)-5-(trifluoromethyl)phenyl)benzamide] |  |
| 1350 nM | CC(=O)N1CCN(Cc2cc(NC(=O)c3ccc(C)c(-c4ccc5nc(NC(=O)C6CC6)cn5n4)c3)cc(C(F)(F)F)c2)CC1 [Compound I-10, N-(3-((4-acetylpiperazin-1-yl)methyl)-5-(trifluoromethyl)phenyl)-3-(2-(cyclopropanecarboxamido)imidazo[1,2-b]pyridazin-6-yl)-4-methylbenzamide] |  |
| 2620 nM | CCS(=O)(=O)N1CCN(Cc2cc(NC(=O)c3ccc(C)c(-c4ccc5nc(NC(=O)C6CC6)cn5n4)c3)cc(C(F)(F)F)c2)CC1 [Compound I-11, 3-(2-(cyclopropanecarboxamido)imidazo[1,2-b]pyridazin-6-yl)-N-(3-((4-(ethylsulfonyl)piperazin-1-yl)methyl)-5-(trifluoromethyl)phenyl)-4-methylbenzamide] |  |
| 1820 nM | COCCN1CCN(Cc2cc(NC(=O)c3ccc(C)c(-c4ccc5nc(NC(=O)C6CC6)cn5n4)c3)cc(C(F)(F)F)c2)CC1 [Compound I-12, 3-(2-(cyclopropanecarboxamido)imidazo[1,2-b]pyridazin-6-yl)-N-(3-((4-(2-methoxyethyl)piperazin-1-yl)methyl)-5-(trifluoromethyl)phenyl)-4-methylbenzamide] |  |
| 3180 nM | CCOC(=O)N1CCN(Cc2cc(NC(=O)c3ccc(C)c(-c4ccc5nc(NC(=O)C6CC6)cn5n4)c3)cc(C(F)(F)F)c2)CC1 [Compound I-13, ethyl 4-(3-(3-(2-(cyclopropanecarboxamido)imidazo[1,2-b]pyridazin-6-yl)-4-methylbenzamido)-5-(trifluoromethyl)benzyl)piperazine-1-carboxylate] |  |
| 772 nM | Cc1ccc(C(=O)Nc2cc(CN3CCN(CC4CC4)CC3)cc(C(F)(F)F)c2)cc1-c1ccc2nc(NC(=O)C3CC3)cn2n1 [Compound I-14, 3-(2-(cyclopropanecarboxamido)imidazo[1,2-b]pyridazin-6-yl)-N-(3-((4-(cyclopropylmethyl)piperazin-1-yl)methyl)-5-(trifluoromethyl)phenyl)-4-methylbenzamide] |  |
| 1100 nM | CCN1CCN(Cc2ccc(NC(=O)c3ccc(C)c(-c4ccc5nc(NC(=O)C6CC6)cn5n4)c3)cc2C(F)(F)F)CC1 [Compound I-15, 3-(2-(cyclopropanecarboxamido)imidazo[1,2-b]pyridazin-6-yl)-N-(4-((4-ethylpiperazin-1-yl)methyl)-3-(trifluoromethyl)phenyl)-4-methylbenzamide] |  |
| 486 nM | CCN1CCN(Cc2cc(NC(=O)c3cnc(C)c(-c4ccc5nc(NC(=O)C6CC6)cn5n4)c3)cc(C(F)(F)F)c2)CC1 [Compound I-16, 5-(2-(cyclopropanecarboxamido)imidazo[1,2-b]pyridazin-6-yl)-N-(3-((4-ethylpiperazin-1-yl)methyl)-5-(trifluoromethyl)phenyl)-6-methylnicotinamide] |  |
| 934 nM | CCN1CCN(Cc2cc(NC(=O)c3cc(-c4ccc5nc(NC(=O)C6CC6)cn5n4)c(C)cc3F)cc(C(F)(F)F)c2)CC1 [Compound I-17, 5-(2-(cyclopropanecarboxamido)imidazo[1,2-b]pyridazin-6-yl)-N-(3-((4-ethylpiperazin-1-yl)methyl)-5-(trifluoromethyl)phenyl)-2-fluoro-4-methylbenzamide] |  |
| 985 nM | CCN1CCN(Cc2cc(NC(=O)c3cc(-c4ccc5nc(NC(=O)C6CC6)cn5n4)c(C)cn3)cc(C(F)(F)F)c2)CC1 [Compound I-18, 4-(2-(cyclopropanecarboxamido)imidazo[1,2-b]pyridazin-6-yl)-N-(3-((4-ethylpiperazin-1-yl)methyl)-5-(trifluoromethyl)phenyl)-5-methylpicolinamide] |  |
| 8760 nM | CCN1CCN(Cc2cc(NC(=O)c3cc(-c4ccc5nc(NC(=O)C6CC6)cn5n4)c(C)cc3C)cc(C(F)(F)F)c2)CC1 [Compound I-19, 5-(2-(cyclopropanecarboxamido)imidazo[1,2-b]pyridazin-6-yl)-N-(3-((4-ethylpiperazin-1-yl)methyl)-5-(trifluoromethyl)phenyl)-2,4-dimethylbenzamide] |  |
| 399 nM | CCc1ccc(C(=O)Nc2cc(CN3CCN(CC)CC3)cc(C(F)(F)F)c2)cc1-c1ccc2nc(NC(=O)C3CC3)cn2n1 [Compound I-20, 3-(2-(cyclopropanecarboxamido)imidazo[1,2-b]pyridazin-6-yl)-4-ethyl-N-(3-((4-ethylpiperazin-1-yl)methyl)-5-(trifluoromethyl)phenyl)benzamide] |  |
| > 10000 nM | CCN1CCN(Cc2cc(NC(=O)c3cc(-c4ccc5nc(NC(=O)C6CC6)cn5n4)c(C)nc3O)cc(C(F)(F)F)c2)CC1 [Compound I-21, 5-(2-(cyclopropanecarboxamido)imidazo[1,2-b]pyridazin-6-yl)-N-(3-((4-ethylpiperazin-1-yl)methyl)-5-(trifluoromethyl)phenyl)-2-hydroxy-6-methylnicotinamide] |  |
| 1900 nM | CCN1CCN(Cc2cc(NC(=O)c3ccc(C(F)(F)F)c(-c4ccc5nc(NC(=O)C6CC6)cn5n4)c3)cc(C(F)(F)F)c2)CC1 [Compound I-22, 3-(2-(cyclopropanecarboxamido)imidazo[1,2-b]pyridazin-6-yl)-N-(3-((4-ethylpiperazin-1-yl)methyl)-5-(trifluoromethyl)phenyl)-4-(trifluoromethyl)benzamide] |  |
| 5120 nM | CCN1CCN(Cc2cc(NC(=O)c3ccc(C#N)c(-c4ccc5nc(NC(=O)C6CC6)cn5n4)c3)cc(C(F)(F)F)c2)CC1 [Compound I-23, 4-cyano-3-(2-(cyclopropanecarboxamido)imidazo[1,2-b]pyridazin-6-yl)-N-(3-((4-ethylpiperazin-1-yl)methyl)-5-(trifluoromethyl)phenyl)benzamide] |  |
| > 3330 nM | CCN1CCN(Cc2cc(NC(=O)c3ccc(C)c(-c4ccc5nc(N)cn5n4)c3)cc(C(F)(F)F)c2)CC1 [Compound I-24, 3-(2-aminoimidazo [1,2-b]pyridazin-6-yl)-N-(3-((4-ethylpiperazin-1-yl)methyl)-5-(trifluoromethyl)phenyl)-4-methylbenzamide] |  |
| 7020 nM | CCN1CCN(Cc2cc(NC(=O)c3ccc(C)c(-c4ccc5nc(NC(=O)C6CC6)n(C)c5c4)c3)cc(C(F)(F)F)c2)CC1 [Compound I-25, 3-(2-(cyclopropanecarboxamido)-1-methyl-1H-benzo[d]imidazol-6-yl)-N-(3-((4-ethylpiperazin-1-yl)methyl)-5-(trifluoromethyl)phenyl)-4-methylbenzamide] |  |
| > 10000 nM | CCN1CCN(Cc2cc(NC(=O)c3ccc(C)c(-c4ccc5c(c4)nc(NC(=O)C4CC4)n5C)c3)cc(C(F)(F)F)c2)CC1 [Compound I-26, 3-(2-(cyclopropanecarboxamido)-1-methyl-1H-benzo[d]imidazol-5-yl)-N-(3-((4-ethylpiperazin-1-yl)methyl)-5-(trifluoromethyl)phenyl)-4-methylbenzamide] |  |
| 1530 nM | CCN1CCN(Cc2cc(NC(=O)c3ccc(C)c(-c4ccc5[nH]c(NC(=O)C6CC6)nc5n4)c3)cc(C(F)(F)F)c2)CC1 [Compound I-27, 3-(2-(cyclopropanecarboxamido)-1H-imidazo[4,5-b]pyridin-5-yl)-N-(3-((4-ethylpiperazin-1-yl)methyl)-5-(trifluoromethyl)phenyl)-4-methylbenzamide] |  |
|  | N#CC[C@H](C1CCCC1)n1cc(-c2ncnc3[nH]ccc23)cn1 [Ruxolitinib] | > 20000 nM |
